From US20230203060A1 (GENFLEET THERAPEUTICS (SHANGHAI) INC., priority 2020, published 2023)
Where two headings read alike, the source gives them in different places.

Experiments:
Format in all cases: cell-based, human
[1] = system: A549 cells (KRAS G12S mutant); experiment: Cell proliferation inhibition experiment, 3D spheroid, CellTiter-Glo, A549; conditions: A549 (KRAS G12S mutant) 3D spheroid, 5 days with compound, CellTiter-Glo, read-out: A549 IC50
Method in brief: (§1)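 CellTiter-Glo luminescence after 5 days' compound treatment (3.16-fold series, 0.1% DMSO) of overnight-formed spheroids in 2% FBS medium: H358 seeded at 800 cells/well in RPMI-1640, A549 at 400 cells/well in F-12K. IC50 derived by four-parameter fit of inhibition normalized to DMSO control and blank.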

[2] = system: KRAS G12C mutant NCI-H358 cells; experiment: Cell proliferation inhibition experiment, 3D spheroid, CellTiter-Glo, NCI-H358; conditions: Homo sapiens, NCI-H358, 120 h, NCI-H358 (KRAS G12C mutant) 3D spheroid, 5 days with compound, CellTiter-Glo; read-out: H358 IC50
Method in brief: as §1

[3] = system: KRAS G12C mutant MIA PaCa-2 cells; experiment: Cell proliferation inhibition experiment, 3D spheroid, CellTiter-Glo, MIA PaCa-2; conditions: 3D cell model in 384-well spheroid plate, 5 days, CellTiter-Glo, read-out: MIA-PaCa2 IC50
Method in brief: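 Luminescent ATP read-out (CellTiter-Glo) after 5-day compound treatment of spheroids formed overnight from 200 MIA PaCa-2 cells/well; compounds in 3.16-fold series, 0.1% DMSO final. IC50 derived by four-parameter fit of percent inhibition, normalized to DMSO control and medium blank.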

[4] = Homo sapiens, MIA PaCa-2, 120 h

| Structure (SMILES) | IC50 ([1]; Homo sapiens, A549, 120 h) | IC50 [2] | IC50 [3, 4] | IC50 [1] | IC50 [3] |
| --- | --- | --- | --- | --- | --- |
| C=CC(=O)N1CCN2C(=O)c3c(N4Cc5cn(C)nc5C4C)nc(-c4c(O)cccc4F)c(Cl)c3OC[C@H]2C1 (stereo partly drawn) [Z291-2] | 9690 nM | 3.5 nM | 7 nM | – | – |
| C=CC(=O)N1CCN2C(=O)c3c(N4CCN(C)C(=O)[C@@H]4C)nc(-c4c(O)cccc4F)c(Cl)c3OC[C@H]2C1 [Z311-1, (6aR)-8-actyloyl-4-chloro-1-((S)-2,4-dimethyl-3-oxopiperazin-1-yl)-3-(2-fluoro-6-hydroxyphenyl)-6,6a,7,8,9,10-hexahydro-12H-pyrazino[2,1-c]pyrido[3,4-f][1,4]oxazepin-12-one] | > 30000 nM | 10 nM | 12 nM | – | – |
| C=CC(=O)N1CCN2C(=O)c3c(N4CCN(C(C)=O)C[C@@H]4C)nc(-c4c(O)cccc4F)c(Cl)c3OC[C@H]2C1 [Z313-1] | > 30000 nM | 1.6 nM | 2.6 nM | – | – |
| C=CC(=O)N1CCN2C(=O)c3c(N4CCN(C(=O)CC)C[C@@H]4C)nc(-c4c(O)cccc4F)c(Cl)c3OC[C@H]2C1 [Z316-1, (6aR)-8-acryloyl-4-chloro-3-(2-fluoro-6-hydroxyphenyl)-1-((S)-2-methyl-4-propionylpiperazin-1-yl)-6,6a,7,8,9,10-hexahydro-12H-pyrazino[2,1-c]pyrido[3,4-f][1,4]oxazepin-12-one] | > 30000 nM | 1.3 nM | 2.2 nM | – | – |
| C=CC(=O)N1CCN2C(=O)c3c(N4CCN(S(C)(=O)=O)C[C@@H]4C)nc(-c4c(O)cccc4F)c(Cl)c3OC[C@H]2C1 [Z318-1, (6aR)-8-acryloyl-1-((S)-2-methyl-4-(methylsulfonyl)piperazin-1-yl)-4-chloro-3-(2-fluoro-6-hydroxyphenyl)-6,6a,7,8,9,10-hexahydro-12H-pyrazino[2,1-c]pyrido[3,4-f][1,4]oxazepin-12-one] | 26300 nM | 5.7 nM | 10.9 nM | – | – |
| C=CC(=O)N1CCN2C(=O)c3c(N4CCN(C(=O)C5CC5)C[C@@H]4C)nc(-c4c(O)cccc4F)c(Cl)c3OC[C@H]2C1 [Z320-1, (6aR)-8-acryloyl-4-chloro-1-((S)-4-(cyclopropanecarbonyl)-2-methylpiperazin-1-yl)-3-(2-fluoro-6-hydroxyphenyl)-6,6a,7,8,9,10-hexahydro-12H-pyrazino[2,1-c]pyrido[3,4-f][1,4]oxazepin-12-one] | 8920 nM | 1.3 nM | 1.7 nM | – | – |
| C=CC(=O)N1CCN2C(=O)c3c(N4CCN(C)C[C@@H]4C)nc(-c4nc(N)cc(C)c4C(F)(F)F)c(Cl)c3OC[C@H]2C1 [Z328-1, (R)-8-acryloyl-3-(6-amino-4-methyl-3-(trifluoromethyl)pyridin-2-yl)-4-chloro-1-((S)-2,4-dimethylpiperazin-1-yl)-6,6a,7,8,9,10-hexahydro-12H-pyrazino[2,1-c]pyrido[3,4-f][1,4]oxazepin-12-one] | 16100 nM | 2.2 nM | 1.7 nM | – | – |
| C=CC(=O)N1CCN2C(=O)c3c(N4CC[C@@H](OC)[C@@H]4C)nc(-c4c(O)cccc4F)c(Cl)c3OC[C@H]2C1 [Z338-1, (6aR)-8-acryloyl-4-chloro-3-(2-fluoro-6-hydroxyphenyl)-1-((2S,3R)-3-methoxy-2-methylpyrrolidin-1-yl)-6,6a,7,8,9,10-hexahydro-12H-pyrazino[2,1-c]pyrido[3,4-f][1,4]oxazepin-12-one] | 12300 nM | 6 nM | 9 nM | – | – |
| C=CC(=O)N1CCN2C(=O)c3c(N4CC[C@H](OC)[C@@H]4C)nc(-c4c(O)cccc4F)c(Cl)c3OC[C@H]2C1 [Z347-1, (6aR)-8-acryloyl-4-chloro-3-(2-fluoro-6-hydroxyphenyl)-1-((2S,3S)-3-methoxy-2-methylpyrrolidin-1-yl)-6,6a,7,8,9,10-hexahydro-12H-pyrazino[2,1-c]pyrido[3,4-f][1,4]oxazepin-12-one] | 9550 nM | 2.1 nM | 4 nM | – | – |
| C=CC(=O)N1CCN2C(=O)c3c(N4C[C@@H](N(C)CCOC)C[C@@H]4C)nc(-c4c(O)cccc4F)c(Cl)c3OC[C@H]2C1 [Z358-1] | > 10000 nM | 4.8 nM | 7.2 nM | – | – |
| C=CC(=O)N1CCN2C(=O)c3c(N4C[C@@H](OC)C[C@@H]4C)nc(-c4c(O)cccc4F)c(F)c3OC[C@H]2C1 [Z359-1, (6aR)-8-actyloyl-4-fluoro-3-(2-fluoro-6-hydroxyphenyl)-1-((2S,4S)-4-methoxy-2-methylpyrrolidin-1-yl)-6,6a,7,8,9,10-hexahydro-12H-pyrazino[2,1-c]pyrido[3,4-f][1,4]oxazepin-12-one] | 12200 nM | 8.3 nM | 17.6 nM | – | – |

Continued, values first:

| IC50 ([1]; Homo sapiens, A549, 120 h) | IC50 [2] | IC50 [3, 4] | IC50 [1] | IC50 [3] | Structure (SMILES) |
| --- | --- | --- | --- | --- | --- |
| > 30000 nM | 6 nM | 9.9 nM | – | – | C=CC(=O)N1CCN2C(=O)c3c(N4CCOCC4)nc(-c4nc(N)cc(C)c4C(F)(F)F)c(Cl)c3OC[C@H]2C1 [Z314] |
| > 30000 nM | 5 nM | 9.6 nM | – | – | C=CC(=O)N1CCN2C(=O)c3c(N4CCN(C(C)=O)C(C)(C)C4)nc(-c4c(O)cccc4F)c(Cl)c3OC[C@H]2C1 [Z315, (6aR)-1-(4-acetyl-3,3-dimethylpiperazin-1-yl)-8-acryloyl-4-chloro-3-(2-fluoro-6-hydroxyphenyl)-6,6a,7,8,9,10-hexahydro-12H-pyrazino[2,1-c]pyrido[3,4-f][1,4]oxazepin-12-one] |
| 10700 nM | 4.5 nM | 6.3 nM | – | – | C=CC(=O)N1CCN2C(=O)c3c(N4CCN(CC)C(C)(C)C4)nc(-c4c(O)cccc4F)c(Cl)c3OC[C@H]2C1 [Z322, (6aR)-8-actyloyl-4-chloro-3-(2-fluoro-6-hydroxyphenyl)-1-(4-ethyl-3,3-dimethylpiperazin-1-yl)-6,6a,7,8,9,10-hexahydro-12H-pyrazino[2,1-c]pyrido[3,4-f][1,4]oxazepin-12-one] |
| 8840 nM | 0.7 nM | 0.9 nM | – | – | C=CC(=O)N1CCN2C(=O)c3c(N4CC(N(C)C5COC5)CC4(C)C)nc(-c4c(O)cccc4F)c(Cl)c3OC[C@H]2C1 (stereo partly drawn) [Z326, (6aR)-8-acryloyl-4-chloro-1-(2,2-dimethyl-4-(methyl(oxetan-3-yl)amino)pyrrolidin-1-yl)-3-(2-fluoro-6-hydroxyphenyl)-6,6a,7,8,9,10-hexahydro-12H-pyrazino[2,1-c]pyrido[3,4-f][1,4]oxazepin-12-one] |
| 8550 nM | 9 nM | 11 nM | – | – | C=CC(=O)N1CCN2C(=O)c3c(N4CCC(N(C)C)C4(C)C)nc(-c4c(O)cccc4F)c(Cl)c3OC[C@H]2C1 (stereo partly drawn) [Z334, (6aR)-8-acryloyl-4-chloro-1-(3-(dimethylamino)-2,2-dimethylpyrrolidin-1-yl)-3-(2-fluoro-6-hydroxyphenyl)-6,6a,7,8,9,10-hexahydro-12H-pyrazino[2,1-c]pyrido[3,4-f][1,4]oxazepin-12-one] |
| > 30000 nM | 11 nM | 18 nM | – | – | C=CC(=O)N1CCN2C(=O)c3c(N4CC(C#N)CC4(C)C)nc(-c4c(O)cccc4F)c(F)c3OC[C@H]2C1 (stereo partly drawn) [Z335] |
| 3060 nM | 9.5 nM | 16 nM | – | – | C=CC(=O)N1CCN2C(=O)c3c(N4CCN(C)C[C@@H]4C)nc(-c4c(F)ccc(Cl)c4O)c(Cl)c3OC[C@H]2C1 [Z342, (6aR)-8-acryloyl-4-chloro-3-(3-chloro-6-fluoro-2-hydroxyphenyl)-1-((S)-2,4-dimethylpiperazin-1-yl)-6,6a,7,8,9,10-hexahydro-12H-pyrazino[2,1-c]pyrido[3,4-f][1,4]oxazepin-12-one] |
| 6800 nM | 10.4 nM | 18 nM | – | – | C=CC(=O)N1CCN2C(=O)c3c(N4CCN(C)C[C@@H]4C)nc(-c4c(O)ccc(Cl)c4F)c(Cl)c3OC[C@H]2C1 [Z343, (6aR)-8-acryloyl-4-chloro-3-(3-chloro-2-fluoro-6-hydroxyphenyl)-1-((S)-2,4-dimethylpiperazin-1-yl)-6,6a,7,8,9,10-hexahydro-12H-pyrazino[2,1-c]pyrido[3,4-f][1,4]oxazepin-12-one] |
| 3720 nM | 1.3 nM | 3 nM | – | – | C=CC(=O)N1CCN2C(=O)c3c(N4CC(N5CCOCC5)CC4(C)C)nc(-c4c(O)cccc4F)c(Cl)c3OC[C@H]2C1 (stereo partly drawn) [Z344, (6aR)-8-acryloyl-4-chloro-1-((2,2-dimethyl-4-morpholinopyrrolidin-1-yl))-3-(2-fluoro-6-hydroxyphenyl)-6,6a,7,8,9,10-hexahydro-12H-pyrazino[2,1-c]pyrido[3,4-f][1,4]oxazepin-12-one] |
| 28300 nM | 20 nM | 29 nM | – | – | C=CC(=O)N1CCN2C(=O)c3c(N4CCN(C)C[C@@H]4C)nc(-c4c(F)ccc(F)c4O)c(Cl)c3OC[C@H]2C1 [Z356, (6aR)-8-acryloyl-4-chloro-3-(3,6-difluoro-2-hydroxyphenyl)-1-((S)-2,4-dimethylpiperazin-1-yl)-6,6a,7,8,9,10-hexahydro-12H-pyrazino[2,1-c]pyrido[3,4-f][1,4]oxazepin-12-one] |
| – | 3.6 nM | – | 27100 nM | 6 nM | C=CC(=O)N1CCN2C(=O)c3c(N4CCN(C)C(C)C4C)nc(-c4c(O)cccc4F)c(Cl)c3OC[C@H]2C1 (stereo partly drawn) [Z369, (6aR)-8-acryloyl-4-chloro-3-(2-fluoro-6-hydroxyphenyl)-1-(2,3,4-trimethylpiperazin-1-yl)-6,6a,7,8,9,10-hexahydro-12H-pyrazino[2,1-c]pyrido[3,4-f][1,4]oxazepin-12-one] |
